In US20220304943A1, “FLOWABLE CANNABINOID COMPOSITIONS HAVING HIGH EFFECTIVE CONCENTRATIONS” (Canopy Growth Corporation, priority 2019, published 2022):

Assay: Saturation concentration of CBDA and CBD
Type: physicochemical
Description: A cannabinoid composition comprising a 2:1 mixture of cannabidiolic acid (CBDA) and cannabidiol (CBD) and only minor amounts of other products provides a non-limiting illustration of how a cannabinoid incipient can be utilized to increase the in actio concentration of a target cannabinoid without increasing the in situ concentration of the target cannabinoid above its saturation concentration. […] In other words, under at least some vape-device related conditions, CBD solutions comprising greater than about 50 wt. % CBD may suffer from reduced flowability within a vape device. As such, high effective CBD concentrations appear untenable based on conventional strategies. However, the experimental results set out herein also indicate that: (i) the saturation concentration of CBDA under similar circumstances is considerably higher than that of CBD; (ii) CBDA can be converted to CBD under the conditions associated with cannabinoid vapourization (e.g. the formation of a cannabinoid-based vapour or aerosol); and (iii) including CBDA in an in situ composition can increase the saturation concentration of CBD. Accordingly, as evidenced by the results set out in the present disclosure, CBDA can be utilized as an incipient—it can increase the in actio concentration of CBD without increasing the in situ concentration of CBD above its saturation concentration. […] In this respect, the present disclosure provides access to flowable cannabinoid compositions having high effective concentrations.
FIG. 1 illustrates this with a schematic phase diagram 100 for a cannabinoid composition in accordance with the present disclosure that comprises CBDA and CBD. […] In FIG. 1, the saturation concentration of CBDA and CBD are identified with reference numbers 102 and 104, respectively, and they delineate a “potentially flowable zone” 106 from a “non-flowable zone” 108. […] This is indicated schematically in FIG. 1 with arrow 110. […]

[1] = ethanol solutions under standard temperature and pressure conditions, CBD derived from an isolate

Row | Structure (SMILES) | saturation concentration [1] | saturation concentration (under at least some vape-device related conditions)
1 | C=C(C)[C@@H]1CCC(C)=C[C@H]1c1c(O)cc(CCCCC)cc1O [CBD, cannabidiol] | about 50 wt. % | about 50 wt. %
2 | C=C(C)[C@@H]1CCC(C)=C[C@H]1c1c(O)cc(CCCCC)c(C(=O)O)c1O [CBDA, cannabidiolic acid] | about 70 wt. % | 
